Reference: US7297818B2, “Adamantane derivatives” (AstraZeneca AB, priority 1999, dated 2007)
Counter-ions that a name gives are not always drawn.

`COCCNCCCc1ccc(Cl)c(C(=O)NCC23CC4CC(CC(C4)C2)C3)c1` (as salt: hydrochloride) [Example 22, 2-Chloro-5-[3-[(2-methoxyethyl)amino]propyl]-N-(tricyclo[3.3.1.1^3,7]dec-1-ylmethyl)-benzamide, hydrochloride salt] gave a melting point of 245 to 248 °C.
